Assay results published in US8076485B2, “Methylphenidate derivatives and uses of them” (priority 2005, dated 2011).

How the values were obtained:
[1] = mice; cited from earlier work
TCR-positive cells = test: Annexin staining of TCR-positive cells (flow cytometry, cell death); type: cell-based, human; details: PHA 5 μg/ml plus 50 μg/ml; PHA alone 67%
Method: After this incubation, PHA was added to give a final concentration of 5 μg/ml, and the cells were incubated for an additional 72 hours at 37° C., 5% CO2. All cultures were performed in triplicate. Cells were then removed by centrifugation at 1000 rpm for 10 minutes.
The cells were further analyzed by flow cytometry Annexin was used to determine populations of dead or dying cells. Anti-CD69 antibody was used to establish the level of cellular activation. Antibody to T-cell receptor αβ (TCR) was also used. Recombinant Annexin 5 (PE and FITC conjugates) and the antibodies were all purchase from Caltag (Burlingham, Calif.) and used following the manufacturer's recommendations.

Ras = Ras activation pulldown assay in TRiPS cells; type: cell-based, human; details: 15 μg/ml
Method: (§1) Day 10 TRiPS cells, 1×10^6, were incubated with 15 μg/ml of the compound of formula II (Cpd II) for 1 hour at 37° C. Then, the cells were incubated with CD3/CD28 beads (1 μl per 100,000 cells) (obtained from Dynal) for 10 minutes at 37° C. The cells were then lysed with a mild buffer (supplied with Pierce EZ-Detect activation kit described below) to produce cell extracts. Protein concentrations of the resulting extracts were determined by bicinchoninic acid (BCA) assay (Pierce) and placed on ice for immediate use.
(§2) Pulldown assays were performed using Pierce EZ-Detect activation kits according to the manufacturer's instructions utilizing GST-RAF-1-RBD and GST-RalGDS-RBD for Ras and RAP-1 respectively. Briefly, 400 μg total protein from each extract was combined with recombinant protein and glutathione resin and incubated at 4° C. for one hour with gentle shaking The resin was then washed to remove unbound protein and the activated Ras and RAP-1 proteins were removed by boiling in the presence of SDS-PAGE loading dye containing reducing agent. Ras and RAP-1 western blots were performed to visualize the proteins using antibodies supplied with the kit. Densitometry of the X-ray films was done by scanning and computer analysis.

RAP-1 = RAP-1 activation pulldown assay in TRiPS cells; type: cell-based, human; details: 15 μg/ml
Method: as §1, §2

Row | SMILES | carcinogenicity [1] | Annexin staining of TCR-positive cells (cell death) (TCR-positive cells) [%] | inhibition of Ras protein (Ras) | inhibition of RAP-1 (RAP-1)
1 | COC(=O)C(c1ccccc1)C1CCCCN1 (stereo not shown) [methylphenidate] | some evidence that methylphenidate is carcinogenic in mice | – | – | –
2 | COC(=O)C(c1ccc(-c2ccccc2)cc1)C1CCCCN1 (stereo not shown) [Cpd II] | – | 87 | very strong inhibition of Ras protein | appeared to inhibit RAP-1
